The source of these data is patent US8669346B2, “Bone marrow targeting peptides” (Case Western Reserve University, priority 2010, dated 2014).

“Also recorded” adds a separate entry of the source. Where no end group is shown, it is not given here.

The test system of data set [1] is bone marrow. Nature of the data set: in vivo phage display screening; sequencing of phage plaques after the 5th round of injection. The arrangement: species or system C57BU6 mice. As to conditions: for Lung / R. Leg (IRR) / L. Leg (Non-IRR): number of sequenced plaques with this sequence; for Lung: after last injection (Table II); for Sequence copy number C BM: control bone marrow; for Sequence copy number C BM / Sequence copy number Irr BM: 20 plaques per organ isolate; for Sequence copy number Irr BM: irradiated bone marrow; for Sequence copy number Lung: 20 plaques per organ isolate (Table III); for R. Leg (IRR): bone marrow of irradiated right leg; for R. Leg (IRR) / L. Leg (Non-IRR): after last injection; for L. Leg (Non-IRR): bone marrow of non-irradiated left leg. The procedure: FIG. 2 illustrates schematic view of a phage screening strategy in accordance with an aspect of the application. The entire procedure was repeated 5 times to eliminate non-specific phage. On the fifth extraction, phage plaques were isolated from multiple organs and individually collected, expanded and sequenced.
(§1) C57BU6 mice had their right leg irradiated then, 24 h later, a phage library was injected and allowed to circulate, bone marrow was then harvested and the phage pool isolated. Phage were amplified and injected into the next mouse, and this process repeated a total of five times. The phage pool was then analysed from irradiated and non-irradiated legs and the sequences determined. Individual phage were then amplified, injected into irradiated mice and tissue distribution assessed. Table 1 lists the different peptides that came out of the sequencing from plaques plated after the last injection.
The screening methodology employed for isolating bone marrow-binding peptide sequences via phage display is illustrated in FIG. 2. Included in our screening strategy was the idea of obtaining some bone marrow-binding peptides that had high affinity for irradiated bone marrow, which, although not a required feature for targeting UCB cells to marrow, could be useful for engraftment into hosts where radiation treatment is part of the conditioning regimen. After the 5th round of phage injections, phage was isolated from lungs and from irradiated and non-irradiated bone marrow and sequenced (20 plaques per organ isolate).

In data set [2] the test system is bone marrow. As to the kind of experiment: distribution of individual phage injected into mice whose right leg was irradiated (FIG. 1). Format: in vivo. The procedure: FIG. 1 illustrates the distribution of individual phage injected into mice whose right leg was irradiated. The amount of phage was normalized to tissue mass.
as §1

In data set [3] the test system is spleen. As to the kind of experiment: isolated phage injected into whole body irradiated mice. Format: in vivo.
In data set [4] the test system is UCB CD34+ cells. As to the kind of experiment: cell coating by CCP, flow cytometry using FITC-labeled Streptavidin. Format: cell-based, human. The procedure: (§2) The CCP molecule has three primary components: One, the targeting peptide sequence; two, a linker sequence containing a biotinylated amino acid; and, three a lipid moiety for integration into the cell membrane (FIG. 4). Once synthesized, all CCP molecules are tested for purity and molecular weight using HPLC and mass spectroscopy (located in the Puget Sound Blood Center); for their ability to coat UCB CD34+ cells using flow cytometry, for any toxicity effects on progenitors using MTT and hematopoietic colony forming unit (CFU) assays.
(§3) Sequences from this initial round of selection (CALFFV (SEQ ID NO:1), RAPGGET (SEQ ID NO:41), RKVVVGS (SEQ ID NO: 4) and control RSR) were contracted out to commercial vendors for synthesis into CCPs. One single-hit sequence from bone marrow, RKVVVGS (SEQ ID NO:4), termed “RKV”, was successfully synthesized, purified, and its molecular weight validated by mass spectroscopy.
(In general: A flow cytometer gives signals particle by particle.)

The subject of data set [5] is UCB CD34+ cells. As to the kind of experiment: MTT assay, toxicity on coated cells. In kind it is cell-based, human. As to conditions: data not shown. The procedure:
as §2, §3
(Tetrazolium dyes change colour on reduction, which living cells bring about.)

Data set [6] has as its system bone marrow. Nature of the data set: spleen and bone marrow-targeting of UCB cells coated with RKV-CCP, qRT-PCR of human ALU sequences (FIG. 5). In kind it is in vivo, mice. As to conditions: 3 weeks post injection. The text has this:
FIG. 5 illustrates a chart showing ALU qRT-PCR quantification of human UCB cell numbers. The y-axis indicates human cell numbers calculated from a human cell standard curve. RKV=RKV-coated human UCB cells; NC=Non-coated human UCB cells; P=Plasma-injected. ρ values are from Student's t test between RKV and NC samples. The squares indicate the individual values for the RKV samples.
Preliminary spleen and bone marrow-targeting of UCB cells has already been conducted with the RKV peptides as a CCP molecule (RKV-CCP). UCB cells were isolated using a discontinuous Percol gradient, red blood cells were lysed with ammonium chloride, and the cells were incubated at 37° C. for a total of 10 min with RKV-CCP molecule (30 μg/ml), centrifuged, washed and stored at 4° C. until injected. Progenitors from two separate UCB units were coated and tested. Mice were sub-lethally irradiated with 250 cGy and injected with 1.0×10^8 RKV-CCP coated or non-coated UCB cells, or plasma-only control; 2 mice per group per UCB sample for a total of 4 mice per injection group. Bone marrow, spleen and blood were collected 3 weeks post injection. qRT-PCR was then conducted to assess human ALU sequences. The number of human cells found in the marrow was derived from a qRT-PCR standard curve of known amounts of human cell mixed with murine […] cells. […] Plasma-injected mice had essentially no signal.
On the technique in general: Quantitative PCR measures a nucleic acid by following its amplification.

Data set [7] relates to bone marrow. As to the kind of experiment: phage playoff screen, phage titer (PFU) per gram of tissue (FIG. 3). Format: in vivo. As to conditions: equimolar phage injected, single mouse. The procedure: FIG. 3 illustrates a chart showing the results of a phage “playoff screen” where equimolar amounts of phage were injected into a mouse and plaque forming units (PFU) quantified.
We conducted a “playoff screen” to confirm bone marrow-targeting specificity. To perform a Playoff Screen, selected phage, along with a randomly selected phage from the pre-selected phage pool, were injected at equi-molar amounts into irradiated and non-irradiated mice, the bone marrows extracted, weighed and assayed for phage titer per gram of tissue; an example of the results of a Playoff Screen is shown in FIG. 3. While the data shown here are from only a single mouse, the results were important in several aspects.

In data set [1], QNDSASG (listed as Homo sapiens) gave a Lung of 1.
Take GMKGVQL (listed as Homo sapiens): the Lung in data set [1] is listed as 1.
Consider “SSYALI (listed as Homo sapiens) [SS-YALI]”, for which, in data set [1], the “Sequence copy number C BM” value turned out to be 1, the “Sequence copy number Irr BM” value amounted to 5, the “Sequence copy number Lung” value was determined as 0 and the “R. Leg (IRR)” value is on record as 5.
In data set [1], VSGSVR (listed as Homo sapiens) registered a Lung of 1.
Substance GGNANRR (listed as Homo sapiens) gave a Lung in data set [1] of 1.
“KVSD-SL (KVSDSL; listed as Homo sapiens)”: the Lung in data set [1] stood at 1.
As for CALFFV (listed as Homo sapiens), in data set [1], the “Sequence copy number C BM” value was 0, the “Sequence copy number Irr BM” value came out at 4, the “Sequence copy number Lung” value was determined as 1 and the “R. Leg (IRR)” value turned out to be 4. The Lung in data set [1] amounted to 1.
For “GGL-RGGKLAAALE (GGLRGGKLAAALE; listed as Homo sapiens)”, in data set [1], the Lung was found to be 1.
As for RKVVVGS (listed as Homo sapiens), in data set [1], the “Sequence copy number C BM” value is on record as 0, the “Sequence copy number Irr BM” value was determined as 1, the “Sequence copy number Lung” value is 0 and the “R. Leg (IRR)” value is on record as 1. Further, in data set [2] (in words), the “binding in irradiated legs” value is “marked increase in binding” and the “binding in non-irradiated legs” value was “minimal binding”. In addition, in data set [2] (individual phage, right leg irradiated, phage normalized to tissue mass), the “signal in the irradiated leg relative to non-irradiated leg” value is “approximately 15 ×”. Moreover, in data set [3], the binding to spleen entry is on record as “highly increased binding”.
Consider DGRSSRG (listed as Homo sapiens), for which the Lung in data set [1] was 1.
For VGPSVGP (listed as Homo sapiens), the “L. Leg (Non-IRR)” value in data set [1] was determined as 1.
As to VVRAK (listed as Homo sapiens), the Lung in data set [1] worked out at 1.
In the case of RRSGKLL (listed as Homo sapiens), in data set [1], the “L. Leg (Non-IRR)” value is given as 2.
Consider RQDGRHG (listed as Homo sapiens), for which, in data set [1], the “Sequence copy number C BM” value stood at 0, the “Sequence copy number Irr BM” value is recorded as 1, the “Sequence copy number Lung” value is listed as 0 and the “R. Leg (IRR)” value came out at 1.
“FSGRRLVSPRPHPSN (listed as Homo sapiens)” showed a Lung in data set [1] of 1.
As for “RKV: cell coating peptide: RKVVVGS targeting sequence, spacer with biotin-labeled amino acid, lipid moiety for membrane insertion (also: spacer with biotin-labeled amino acid, end not given here, lipid moiety for membrane insertion, end not given here; listed as Homo sapiens)”, the “ability to coat cells” value in data set [4] is given as “able to coat cells efficiently”. Moreover, in data set [5], the “toxic effects on coated cells (MTT)” value is on record as “no toxic effects”. For the same substance, the “human-derived cells in bone marrow compared to control non-coated cells” value in data set [6] (1.0×10^8 UCB cells coated at 30 μg/ml, 250 cGy, ρ value 0.09) is on record as around 7 ×. For the same substance, the “UCB cell numbers in bone marrow compared to spleen” value in data set [6] is given as “approximately 6 times”. For the same substance, the “UCB cell numbers in the spleen compared to uncoated UCB cells” value in data set [6] (statistically significant) is given as “enhanced”.
For the substance “VGVRIGGSLRPHSSN (listed as Homo sapiens)”, in data set [1], the Lung turned out to be 1.
As to DDQSVSRKLAAALE (listed as Homo sapiens), in data set [1], the “Sequence copy number C BM” value came to 0, the “Sequence copy number Irr BM” value was determined as 3, the “Sequence copy number Lung” value turned out to be 0 and the “R. Leg (IRR)” value was found to be 3. Besides, the “increased signal in irradiated leg” value in data set [2] (individual phage, irradiated versus non-irradiated leg, in words) is reported as “exception”.
On to GPGLKEM (listed as Homo sapiens), for which the “L. Leg (Non-IRR)” value in data set [1] is reported as 4.
“VFSGVEVSSRPHSSN (listed as Homo sapiens)” registered a Lung in data set [1] of 1.
For RAPGGET (listed as Homo sapiens), in data set [1], the “Sequence copy number C BM” value turned out to be 0, the “Sequence copy number Irr BM” value was determined as 1 and the “Sequence copy number Lung” value is on record as 0.
“TS-QLWC (TSQLWC; listed as Homo sapiens)”: the “L. Leg (Non-IRR)” value in data set [1] was found to be 4.
For the substance LDSSLFN (listed as Homo sapiens), the “L. Leg (Non-IRR)” value in data set [1] is 1.
Consider “EGGNEV (listed as Homo sapiens) [EGGN-EV]”, for which, in data set [1], the “L. Leg (Non-IRR)” value is 1 and the Lung came out at 1.
SIGHRRE (listed as Homo sapiens): in data set [1], the “Sequence copy number C BM” value turned out to be 4, the “Sequence copy number Irr BM” value is listed as 0, the “Sequence copy number Lung” value stood at 0 and the “L. Leg (Non-IRR)” value stood at 1. Moreover, the “phage levels / titers in bone marrow” value in data set [7] was “minimal”.
Substance LSTRVER (listed as Homo sapiens) gave a Lung in data set [1] of 1.
TSLKDDR (listed as Homo sapiens) came in with a Lung in data set [1] of 1.
Regarding KSMARHR (listed as Homo sapiens), in data set [1], the “L. Leg (Non-IRR)” value was 1 and the Lung came to 1.
Consider “VSKRDL (listed as Homo sapiens) [V-SKRDL]”, for which the “R. Leg (IRR)” value in data set [1] came to 1.
Take “DLAHDALLAWGPPSINCLTLGAP (listed as Homo sapiens)”: the “R. Leg (IRR)” value in data set [1] is listed as 1.
For the substance GIRVMEK (listed as Homo sapiens), in data set [1], the “Sequence copy number C BM” value was determined as 0, the “Sequence copy number Irr BM” value amounted to 2, the “Sequence copy number Lung” value is reported as 0 and the “R. Leg (IRR)” value is 2.
“DRN-RSA (DRNRSA; listed as Homo sapiens)”: in data set [1], the Lung amounted to 1.
Turning to QARNGGR (listed as Homo sapiens), in data set [1], the “Sequence copy number C BM” value worked out at 0, the “Sequence copy number Irr BM” value is given as 0 and the “Sequence copy number Lung” value amounted to 1. In addition, in data set [1] (in words), the “bone marrow specificity in the sequencing screen” value is given as “no bone marrow specificity”. Further, in data set [7], the “phage levels / binding in lung” value was “high levels; also recorded: highest level”, the “phage levels / titers in bone marrow” value is on record as “low levels” and the “titers in the lung compared with bone marrow” value is reported as “greater”.
Regarding GDRRDSR (listed as Homo sapiens), in data set [1], the “L. Leg (Non-IRR)” value is reported as 1.
In data set [1], SVAPLRR (listed as Homo sapiens) displayed a Lung of 1.
On to “GRRGGAKPAVASRR (listed as Homo sapiens) [GRR-GGAKPAVASRR]”, for which the “L. Leg (Non-IRR)” value in data set [1] was 1.
Regarding GRELRGQ (listed as Homo sapiens), the “L. Leg (Non-IRR)” value in data set [1] was found to be 1.
LSTNRFV (listed as Homo sapiens): the “L. Leg (Non-IRR)” value in data set [1] is 1.
In the case of “CGYREVSSAALE (listed as Homo sapiens) [-CGYREVSSAALE]”, the “R. Leg (IRR)” value in data set [1] came to 1.
Substance “GRGDR-R (GRGDRR; listed as Homo sapiens)” displayed a Lung in data set [1] of 1.
As to “RGLQTGLEGSAWLLECGRA (listed as Homo sapiens)”, in data set [1], the “R. Leg (IRR)” value was 1.
RAANTAR (listed as Homo sapiens): the Lung in data set [1] amounted to 1.
